In brackets after ≈: the same amount, converted by molar mass.
Key:
[1] = In vivo toxicity in uninfected mice; details: for In Vivo Toxicity: Survival Ratio 7 Days After Administration Of Single Subcutaneous Dose: uninfected mice
Protocol: The in vivo antibacterial activity of antibiotic LL-E19020 Gamma is established by infecting female CD-1 mice from Charles River Laboratories, weighing 20±2 g each, intraperitoneally with either 2.0 X 10^2 CFU/0.5 ml Streptococcus pyogenes C203 suspended in broth or 2.8 X 10^6 CFU/0.5 ml Straphylococcus aureus Smith suspended in 5% hog gastric mucin. The mice were treated subcutaneously, 30 minutes after infection with the indicated dose of the test compound in 0.5 ml of 0.2% aqueous agar. Toxicity studies were performed administering the same treatment to uninfected mice.

[2] = system: Escherichia coli ATCC 25922; assay: MIC by agar dilution; format: cell-based; details: ATCC25922, Mueller-Hinton agar, 5% sheep blood, 18 hours, read-out: MINIMAL INHIBITORY CONCENTRATION
Protocol: (§1) The in vitro antibacterial activity of LL-E19020 Gamma is determined against a spectrum of gram positive and gram negative bacteria by a standard agar dilution method. Mueller-Hinton agar containing 5% sheep blood and two-fold decreasing concentrations of LL-E19020 Gamma is poured into petri dishes. The agar surfaces are inoculated with 1 to 5X10^4 colony forming units of bacteria by means of the Steers replicating device. The lowest concentration of antibiotic that inhibits growth of a bacterial strain after 18 hours incubation is recorded as the minimal inhibitory concentration for that strain.
(§2) • 1. Serial two-flow dilutions of drug are prepared in Mueller-Hinton broth in a range of 2560 µg/ml-0.15 µg/ml plus a solvent control. • 2. Two milliliters of drug dilution (10X) are added to sterile screw cap bottles to which 18 ml of Mueller-Hinton agar containing 5.6% defibrinated sheep blood is added. Final drug concentration ranges 256 µg/ml-0.015 µg/ml in agar containing 5% sheep blood. • 3. A few isolated colonies of each test organism are inoculated into 5 ml trypticase soy broth or brain heart infusion broth. The cultures are shaken at 35 °C. for 5 hours. • 4. Each culture is diluted 1:50 (10^-1.7) in Mueller-Hinton broth and applied to agar plates using a Steers replicator. Control plates should be seeded last to ensure that viable organisms are present throughout the procedure. Inoculated agar plates are allowed to stand undisturbed until the inoculum spots are completely absorbed. • 5. The plates are inverted and incubated at 35 °C. for 18 hours with CO2. • 6. The minimum inhibitory concentration (MIC) is taken as the lowest concentration of antimicrobial agent at which complete inhibition of antimicrobial agent at which complete inhibition occurs. A very fine, barely visible haze or a single colony is disregarded.

[3] = system: Enterococcus spp. UCI 85-30; assay: MIC by agar dilution; format: cell-based; details: Mueller-Hinton agar, 5% sheep blood, 18 hours, read-out: MINIMAL INHIBITORY CONCENTRATION
Protocol: as §1, §2

[4] = system: Enterococcus spp. VGH 84-69; assay: MIC by agar dilution; format: cell-based; details: Mueller-Hinton agar, 5% sheep blood, 18 hours, read-out: MINIMAL INHIBITORY CONCENTRATION
Protocol: as §1, §2

[5] = system: Staphylococcus aureus NEMC 87-69; assay: MIC by agar dilution; format: cell-based; details: NEMC8769, Mueller-Hinton agar, 5% sheep blood, 18 hours, read-out: MINIMAL INHIBITORY CONCENTRATION
Protocol: as §1, §2

[6] = system: Bacillus cereus DAVIES; assay: MIC by agar dilution; format: cell-based; details: Mueller-Hinton agar, 5% sheep blood, 18 hours, read-out: MINIMAL INHIBITORY CONCENTRATION
Protocol: as §1, §2

[7] = system: Enterococcus spp. ARUM 87-41; assay: MIC by agar dilution; format: cell-based; details: Mueller-Hinton agar, 5% sheep blood, 18 hours, read-out: MINIMAL INHIBITORY CONCENTRATION
Protocol: as §1, §2

[8] = system: Enterococcus spp. WRVA 88-33; assay: MIC by agar dilution; format: cell-based; details: Mueller-Hinton agar, 5% sheep blood, 18 hours, read-out: MINIMAL INHIBITORY CONCENTRATION
Protocol: as §1, §2

[9] = system: Enterococcus spp. CMC 83-120; assay: MIC by agar dilution; format: cell-based; details: Mueller-Hinton agar, 5% sheep blood, 18 hours, read-out: MINIMAL INHIBITORY CONCENTRATION
Protocol: as §1, §2

[10] = system: Pseudomonas aeruginosa 12-4-4 (MP); assay: MIC by agar dilution; format: cell-based; details: Mueller-Hinton agar, 5% sheep blood, 18 hours, read-out: MINIMAL INHIBITORY CONCENTRATION
Protocol: as §1, §2

[11] = system: Staphylococcus aureus ATCC 25923; assay: MIC by agar dilution; format: cell-based; details: ATCC25923, Mueller-Hinton agar, 5% sheep blood, 18 hours, read-out: MINIMAL INHIBITORY CONCENTRATION
Protocol: as §1, §2

[12] = system: Streptococcus pyogenes AMCH 88-84; assay: MIC by agar dilution; format: cell-based; details: AMCH8884, Mueller-Hinton agar, 5% sheep blood, 18 hours, read-out: MINIMAL INHIBITORY CONCENTRATION
Protocol: as §1, §2

[13] = system: Streptococcus pyogenes AMCH 88-86; assay: MIC by agar dilution; format: cell-based; details: AMCH8886, Mueller-Hinton agar, 5% sheep blood, 18 hours, read-out: MINIMAL INHIBITORY CONCENTRATION
Protocol: as §1, §2

[14] = system: Staphylococcus epidermidis IVES 455; assay: MIC by agar dilution; format: cell-based; details: IVES455, Mueller-Hinton agar, 5% sheep blood, 18 hours, read-out: MINIMAL INHIBITORY CONCENTRATION
Protocol: as §1, §2

[15] = system: Klebsiella pneumoniae NEMC 87-271; assay: MIC by agar dilution; format: cell-based; details: NEMC87271, Mueller-Hinton agar, 5% sheep blood, 18 hours, read-out: MINIMAL INHIBITORY CONCENTRATION
Protocol: as §1, §2

[16] = system: Streptococcus pyogenes C203 (MP); assay: MIC by agar dilution; format: cell-based; details: Mueller-Hinton agar, 5% sheep blood, 18 hours, read-out: MINIMAL INHIBITORY CONCENTRATION
Protocol: as §1, §2

[17] = system: Streptococcus pneumoniae SV-1 (MP); assay: MIC by agar dilution; format: cell-based; details: Mueller-Hinton agar, 5% sheep blood, 18 hours, read-out: MINIMAL INHIBITORY CONCENTRATION
Protocol: as §1, §2

[18] = system: Escherichia coli ATCC 35218; assay: MIC by agar dilution; format: cell-based; details: ATCC35218, 18 h, read-out: MINIMAL INHIBITORY CONCENTRATION
Protocol: as §1, §2

[19] = system: Staphylococcus aureus VGH 84-47; assay: MIC by agar dilution; format: cell-based; details: VGH8447, 18 h, read-out: MINIMAL INHIBITORY CONCENTRATION
Protocol: as §1, §2

[20] = system: Staphylococcus haemolyticus AVAH 88-3; assay: MIC by agar dilution; format: cell-based; details: AVAH883, Mueller-Hinton agar, 5% sheep blood, 18 hours, read-out: MINIMAL INHIBITORY CONCENTRATION
Protocol: as §1, §2

[21] = system: Staphylococcus aureus IVES 396; assay: MIC by agar dilution; format: cell-based; details: IVES396, Mueller-Hinton agar, 5% sheep blood, 18 hours, read-out: MINIMAL INHIBITORY CONCENTRATION
Protocol: as §1, §2

C/C=C\C=C\C1OC(O)(C(COC2CC(OC)C(OC3CC(OC)C(OC4CC(OC)C(O)C(C)O4)C(C)O3)C(C)O2)C(=O)NC/C=C/C=C(\C)C(OC)C(C)C2CC(O)C(/C=C/C=C/C=C/C(=O)O)O2)C(OC(=O)Cc2ccc(O)cc2)C(O)C1(C)C (centres unmarked) [LL-E19020 Gamma]
toxic symptoms ([1]; dosed subcutaneously at the same levels used in the protection study (0.5-64 mg/kg)): did not exhibit toxic symptoms | In Vivo Toxicity: Survival Ratio 7 Days After Administration Of Single Subcutaneous Dose ([1]; 0.5 MG/KG): 2/2 | In Vivo Toxicity: Survival Ratio 7 Days After Administration Of Single Subcutaneous Dose ([1]; 1 MG/KG): 2/2 | In Vivo Toxicity: Survival Ratio 7 Days After Administration Of Single Subcutaneous Dose ([1]; 2 MG/KG): 2/2 | In Vivo Toxicity: Survival Ratio 7 Days After Administration Of Single Subcutaneous Dose ([1]; 4 MG/KG): 2/2 | In Vivo Toxicity: Survival Ratio 7 Days After Administration Of Single Subcutaneous Dose ([1]; 8 MG/KG): 2/2 | In Vivo Toxicity: Survival Ratio 7 Days After Administration Of Single Subcutaneous Dose ([1]; 16 MG/KG): 2/2 | In Vivo Toxicity: Survival Ratio 7 Days After Administration Of Single Subcutaneous Dose ([1]; 32 MG/KG): 2/2 | In Vivo Toxicity: Survival Ratio 7 Days After Administration Of Single Subcutaneous Dose ([1]; 64 MG/KG): 2/2 | MIC [2]: > 128 µg/mL | MIC [3]: 16 µg/mL (≈ 12.9 µM) | MIC [4]: 16 µg/mL (≈ 12.9 µM) | MIC [5]: 32 µg/mL (≈ 25.8 µM) | MIC [6]: 32 µg/mL (≈ 25.8 µM) | MIC [7]: 8 µg/mL (≈ 6.44 µM) | MIC [8]: 16 µg/mL (≈ 12.9 µM) | MIC [9]: 16 µg/mL (≈ 12.9 µM) | MIC [10]: > 128 µg/mL | MIC [11]: > 128 µg/mL | MIC [12]: 0.12 µg/mL (≈ 0.0966 µM) | MIC [13]: 0.5 µg/mL (≈ 0.402 µM) | MIC [14]: 16 µg/mL (≈ 12.9 µM) | MIC [15]: > 128 µg/mL | MIC [16]: 0.12 µg/mL (≈ 0.0966 µM) | MIC [17]: 0.12 µg/mL (≈ 0.0966 µM) | MIC [18]: > 128 µg/mL | MIC [19]: 64 µg/mL (≈ 51.5 µM) | MIC [20]: 16 µg/mL (≈ 12.9 µM) | MIC [21]: 64 µg/mL (≈ 51.5 µM)

Source: EP0531640B1, “Antibiotic LL-E19020 Gamma” (F. HOFFMANN-LA ROCHE AG, priority 1991, dated 1993)
